Measured values reported in patent publication US5856127A, “Antimicrobial peptides” (The Research Foundation of State University of New York, priority 1996, dated 1999).
Where a SMILES comes first, the peptide text is derived from it.

Assays:
[1] = system: Castanea mollissima pollen; format: cell-based; details: pH 6.2
Protocol: (§1) Pollen collections for Chinese chestnut (Castanea mollissima), tomato (Lycopersicon esculentum), and willow (Salix lucida) clone 507 were made in central New York. Chestnut catkins and tomato flowers were placed into paper bags in an ice chest. Within 2 hr after collection, catkins were cut into 1.0 cm segments and tomato anthers were placed into sterile 15 ml Falcon tubes. The tubes were "capped" with parafilm punctured with 12-15 holes and lyophilized for 24 hr. Lyophilized samples were stored at -20°C. until removed for rehydration.
(§2) To rehydrate, small amounts of pollen were placed in open microfuge tubes (1.5 ml) which were placed into a closed glass petri dish with a dampened tissue. Pollen was rehydrated overnight in a dark chamber at 14° C.
(§3) Rehydrated plant pollen was diluted with sucrose-boric acid medium ("SBM") to a concentration of 80 grains/μl (Neubauer hemocytometer). Media for pollen germination (SBM, pH 6.2) was prepared with deionized distilled water, sucrose (150 g/L), and boric acid (150 mg/L). Dilutions of all peptides tested against rehydrated pollen grains were aseptically prepared with sterile SBM. Aliquots (50 μl) of peptide solutions were aseptically placed in ELISA microtitre plates as before. Approximately 400 pollen grains (5 μl) were added to the 50 μl volume of peptide solution in the well to give the final peptide concentrations of 0, 1.25, 2.5, 5, 10, 15, 20, 25, 50, 100, 150, 200, and 250 μM. Microtitre plates were incubated in the dark at room temperature for 24 hr. […] All tests were repeated 4 or more times. Controls without peptides were included with all tests. The highest concentration tested was 250 μM.

[2] = system: Salix lucida pollen; format: cell-based; details: pH 6.2
Protocol: Willow pollen was extracted using the protocol described by de Niella and Maynard (1993). Catkins were gently stirred in carbon tetrachloride. The pollen/carbon tetrachloride suspension was filtered (Whatman filter paper) with suction. The pollen was transferred to microfuge tubes (1.5 ml) with a fine-bristle artist's brush and stored at -20° C.
as §2, §3

[3] = system: Lycopersicon esculentum pollen; format: cell-based; details: pH 6.2
Protocol: as §1, §2, §3

[4] = system: Malus domestica pollen; format: cell-based; details: pH 6.2
Protocol: Apple (Malus domestica) cultivar "Empire" pollen was supplied by Susan Brown, Department of Horticultural Sciences, Cornell University, New York State Agricultural Experiment Station, Geneva, N.Y.
as §2, §3

[5] = system: microorganisms and animal red blood cells; details: cited from earlier work
[6] = system: Agrobacterium tumefaciens; assay: MIC against bacteria (Agrobacterium tumefaciens); format: cell-based; details: wild-type strain Bo542, no visible lawn or colonies after 3 days
Protocol: (§4) Dilutions of peptides, prepared in sterile deionized water, were placed (20 μl aliquots) in Corning disposable sterile polystyrene ELISA plates (96 well, high binding) which had been pretreated with bovine serum albumin by rinsing each well with 200 μl of a 1.0 mg/ml solution.
(§5) Bacterial suspensions of A. tumefaciens, E. amylovora, and P. syringae were obtained from liquid cultures grown in Luria Broth (Atlas and Parks 1993). Cultures were grown at 25°C. on a rotary shaker (110 rpm) for 14 hr. Bacterial cell suspensions with an optical density between 0.7 and 0.85 at 600 nanometers (OD600) were used for assay inoculations. Dilutions of peptides were placed in the 96-well ELISA plates as described above. The final peptide concentrations tested were 0, 0.625, 1.25, 2.5, 5, 10, 15, 20, 25, 50, 100, and 250 μM. All tests were repeated 2 or more times. Controls without peptides were included with all tests. The MIC for bacterial cells was the lowest peptide concentration associated with no visible bacterial lawn or isolated colonies on the medium after 3 days in all the repeated tests.

[7] = system: bacteria; assay: Activity against bacteria relative to magainin (applicants' observation); format: cell-based; details: three amino acid substitution versus magainin
[8] = system: Fusarium oxysporum; assay: MIC against fungal conidia (Fusarium oxysporum); format: cell-based; details: f. sp. lycopersici strain 73, PDAmb pH 5.2, scored at 6 days
Protocol: as §4
(§6) Media (PDAmb, pH 5.2) was prepared with deionized water, Difco potato dextrose broth (12 g/L), Sigma D,L-methionine (0.05 g/L), Sigma biotin (2 mg/L), and FisherBiotech low melting point agarose (20 g/L). Sterilized media was added to the wells to make a final volume of 100 μl and allowed to harden for 3 hr prior to inoculation with 10 μl of conidial suspension. Peptide concentrations tested were 0, 1.25, 2.5, 5, 10, 15, 20, 25, 50, 100, 150, 200, and 250 μM.
(§7) Fungal conidial suspensions were aseptically prepared from agar plate cultures of C. parasitica and S. musiva or liquid cultures for F. oxysporum f.sp. lycopersici. Conidia were suspended from agar plates with 10 ml sterile 1% Tween 20. All culture suspensions were filtered through four layers of sterile cheesecloth, collected in sterile 15 ml Falcon tubes, and centrifuged for 3 min at 1900×g. The pellets were then suspended in 10 ml sterile deionized water and centrifuged for 3 min at 1900×g. The "washed" pellets were suspended in 5 ml sterile deionized water. The conidial concentration was determined using a hemocytometer (Fisher ultra plane, Neubauer ruling) and then diluted to 1.0×10^4 conidia/ml.
(§8) Approximately 100 conidia (10 μl) were transferred to each microtitre plate well. Microtitre plates were incubated in ambient light at room temperature in a moist chamber (plastic box containing wet paper towels and covered with clear plastic wrap). Tests with S. musiva used continuous light. Plates were scored for growth at 6 days and photographed. All tests were repeated 4 or more times. Controls without peptides were included with all tests.

[9] = system: Pseudomonas syringae; assay: MIC against bacteria (Pseudomonas syringae); format: cell-based; details: Collection PSS34, no visible lawn or colonies after 3 days
Protocol: as §4, §5

[10] = system: Septoria musiva; assay: MIC against fungal conidia (Septoria musiva); format: cell-based; details: strain 92-49C, PDAmb pH 5.2, scored at 6 days, total prevention of germination
Protocol: as §4, §6, §7, §8

[11] = system: selected filamentous fungi; assay: Activity against filamentous fungi relative to magainin (applicants' observation); format: cell-based; details: three amino acid substitution versus magainin
[12] = system: Erwinia amylovora; assay: MIC against bacteria (Erwinia amylovora); format: cell-based; details: Collection 88-100, no visible lawn or colonies after 3 days
Protocol: as §4, §5

[13] = system: Cryphonectria parasitica; assay: MIC against fungal conidia (Cryphonectria parasitica); format: cell-based; details: strain EP42, PDAmb pH 5.2, scored at 6 days
Protocol: as §4, §6, §7, §8

[14] = combined with either magainin I or magainin II in a 1:1 molar ratio; cited from earlier work
[15] = system: Pseudomonas aeruginosa; details: against Pseudomonas aeruginosa; cited from earlier work
[16] = system: Candida albicans; details: against the yeast Candida albicans; cited from earlier work

Compound | MIC, Castanea mollissima [1] | MIC, Salix lucida [2] | MIC, Fusarium oxysporum [8] | MIC, Septoria musiva [10] | MIC, Cryphonectria parasitica [13] | also measured
CSCC[C@H](N)C(=O)N[C@@H](C)C(=O)N[C@@H](CO)C(=O)N[C@@H](CCCNC(=N)N)C(=O)N[C@@H](C)C(=O)N[C@@H](C)C(=O)NCC(=O)N[C@@H](CC(C)C)C(=O)N[C@@H](C)C(=O)N[C@@H](C)C(=O)N[C@@H](CCCNC(=N)N)C(=O)N[C@@H](CC(C)C)C(=O)N[C@@H](C)C(=O)N[C@@H](CCCNC(=N)N)C(=O)N[C@@H](CC(C)C)C(=O)N[C@@H](C)C(=O)N[C@@H](CC(C)C)C(=O)N[C@@H](CCCNC(=N)N)C(=O)N[C@@H](C)C(=O)N[C@@H](CC(C)C)C(=O)O [ESF1] (H-MASRAAGLAARLARLALRAL-OH) | > 250 µM | > 250 µM |  |  |  | 
CSCC[C@H](N)C(=O)N[C@@H](C)C(=O)N[C@@H](CO)C(=O)N[C@@H](CCCNC(=N)N)C(=O)N[C@@H](C)C(=O)N[C@@H](C)C(=O)NCC(=O)N[C@@H](CC(C)C)C(=O)N[C@@H](C)C(=O)N[C@@H](CCCNC(=N)N)C(=O)N[C@@H](CCCNC(=N)N)C(=O)N[C@@H](CC(C)C)C(=O)N[C@@H](C)C(=O)N[C@@H](CCCNC(=N)N)C(=O)N[C@@H](CC(C)C)C(=O)N[C@@H](C)C(=O)N[C@@H](CCCNC(=N)N)C(=O)N[C@@H](CCCNC(=N)N)C(=O)N[C@@H](C)C(=O)N[C@@H](CC(C)C)C(=O)O [ESF5] (H-MASRAAGLARRLARLARRAL-OH) | > 250 µM | > 250 µM |  |  |  | 
CSCC[C@H](N)C(=O)N[C@@H](C)C(=O)N[C@@H](C)C(=O)N[C@@H](CCCNC(=N)N)C(=O)N[C@@H](C)C(=O)N[C@@H](C)C(=O)NCC(=O)N[C@@H](CC(C)C)C(=O)N[C@@H](C)C(=O)N[C@@H](C)C(=O)N[C@@H](CCCNC(=N)N)C(=O)N[C@@H](CC(C)C)C(=O)N[C@@H](C)C(=O)N[C@@H](C)C(=O)N[C@@H](CC(C)C)C(=O)N[C@@H](C)C(=O)N[C@@H](CC(C)C)C(=O)N[C@@H](CCCNC(=N)N)C(=O)N[C@@H](C)C(=O)N[C@@H](CC(C)C)C(=O)O [ESF6] (H-MAARAAGLAARLAALALRAL-OH) | > 250 µM | > 250 µM |  |  |  | 
CSCC[C@H](N)C(=O)N[C@@H](C)C(=O)N[C@@H](CO)C(=O)N[C@@H](CCCNC(=N)N)C(=O)N[C@@H](C)C(=O)N[C@@H](C)C(=O)NCC(=O)N[C@@H](CC(C)C)C(=O)N[C@@H](C)C(=O)N[C@@H](C)C(=O)N[C@@H](CCCNC(=N)N)C(=O)N[C@@H](CC(C)C)C(=O)N[C@@H](C)C(=O)N[C@@H](CCCNC(=N)N)C(=O)N[C@@H](CC(C)C)C(=O)N[C@@H](C)C(=O)N[C@@H](CC(C)C)C(=O)N[C@@H](CCCNC(=N)N)C(=O)O [ESF12] (H-MASRAAGLAARLARLALR-OH) | > 250 µM | > 250 µM |  |  |  | MIC, Lycopersicon esculentum [3]: > 250 µM; MIC, Malus domestica [4]: > 250 µM
CC[C@H](C)[C@H](NC(=O)CN)C(=O)NCC(=O)N[C@@H](C)C(=O)N[C@H](C(=O)N[C@@H](CC(C)C)C(=O)N[C@@H](CCCCN)C(=O)N[C@H](C(=O)N[C@@H](CC(C)C)C(=O)N[C@H](C(=O)N[C@H](C(=O)NCC(=O)N[C@@H](CC(C)C)C(=O)N1CCC[C@H]1C(=O)N[C@@H](C)C(=O)N[C@@H](CC(C)C)C(=O)N[C@H](C(=O)N[C@@H](CO)C(=O)N[C@@H](Cc1c[nH]c2ccccc12)C(=O)N[C@H](C(=O)N[C@@H](CCCCN)C(=O)N[C@@H](CCCNC(=N)N)C(=O)N[C@@H](CCCCN)C(=O)N[C@@H](CCCNC(=N)N)C(=O)N[C@@H](CCC(N)=O)C(=O)N[C@@H](CCC(N)=O)C(N)=O)[C@@H](C)CC)[C@@H](C)CC)[C@@H](C)O)[C@@H](C)O)C(C)C)C(C)C [melittin] |  |  |  |  |  | lytic activity [5]: very lytic
(Ala^8,13,15)magainin II [Ala^8,13,15 Magainin II] |  |  | 15 µM | 10 µM | 30 µM | MIC, Agrobacterium tumefaciens [6]: 100 µM; change of magainin activity against bacteria [7]: increased magainin activity against bacteria; MIC, Pseudomonas syringae [9]: 250 µM; change of magainin activity against selected filamentous fungi [11]: opposite effect; MIC, Erwinia amylovora [12]: 250 µM
Magainin I |  |  | 15 µM | 5 µM | 10 µM | 
PGLa |  |  |  |  |  | increase of antimicrobial activity [14]: 20-50 fold; times more active than XPF [15]: 4-5 times
XPF |  |  |  |  |  | times more effective than PGLa [16]: 2-2.5 times
cecropin B |  |  | 20 µM | 5 µM | 15 µM | 
